Results: the supplement of paper PMC10307832

Columns and labels:
Test in all cases: relative viability (nuclei count vs DMSO), 5 days (fraction); higher = more cells survive
NVP-TAE684 + Alpelisib = compound: COc1cc(N2CCC(N3CCN(C)CC3)CC2)ccc1Nc1ncc(Cl)c(Nc2ccccc2S(=O)(=O)C(C)C)n1 [NVP-TAE684] + Cc1nc(NC(=O)N2CCC[C@H]2C(N)=O)sc1-c1ccnc(C(C)(C)C(F)(F)F)c1 [Alpelisib] (partner 2 µM)
Summary of the method: (§1)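 Dosing by pin tool came one day after lung cancer cell lines were seeded in 1536-well plates, using either one drug or a fixed anchor-drug dose plus five library-drug doses (not always all listed) in √10 steps. After 5 days, nuclei were counted on 4× images. Relative viability is treated-well nuclei count divided by vehicle-well nuclei count, and values are medians of duplicate plates.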

NVP-TAE684 + Pictilisib = compound: COc1cc(N2CCC(N3CCN(C)CC3)CC2)ccc1Nc1ncc(Cl)c(Nc2ccccc2S(=O)(=O)C(C)C)n1 [NVP-TAE684] + CS(=O)(=O)N1CCN(Cc2cc3nc(-c4cccc5[nH]ncc45)nc(N4CCOCC4)c3s2)CC1 [Pictilisib] (partner 1 µM)
Summary of the method: as §1

[1] = compound: C1=CC=C2C(=C1)N=C(S2)C(C#N)C3=NC(=NC=C3)NCCC4=CN=CC=C4 + CCNC(=O)c1noc(-c2cc(C(C)C)c(O)cc2O)c1-c1ccc(CN2CCOCC2)cc1 [Luminespib] (partner 0.01 µM)
Summary of the method: as §1

CUDC-101 + Pictilisib = compound: C#Cc1cccc(Nc2ncnc3cc(OC)c(OCCCCCCC(=O)NO)cc23)c1 [CUDC-101] + CS(=O)(=O)N1CCN(Cc2cc3nc(-c4cccc5[nH]ncc45)nc(N4CCOCC4)c3s2)CC1 [Pictilisib] (partner 1 µM)
Summary of the method: as §1

Cell Line | relative viability (NVP-TAE684 + Alpelisib; first compound 0.2 µM) | relative viability (NVP-TAE684 + Alpelisib; first compound 0.6325 µM) | relative viability (NVP-TAE684 + Alpelisib; first compound 2 µM) | relative viability (NVP-TAE684 + Pictilisib; first compound 0.2 µM) | relative viability (NVP-TAE684 + Pictilisib; first compound 0.6325 µM) | relative viability (NVP-TAE684 + Pictilisib; first compound 2 µM) | relative viability ([1]; first compound 0.005 µM) | relative viability ([1]; first compound 0.01581 µM) | relative viability ([1]; first compound 0.05 µM) | relative viability ([1]; first compound 0.1581 µM) | relative viability ([1]; first compound 0.5 µM) | relative viability (CUDC-101 + Pictilisib; first compound 0.01 µM) | relative viability (CUDC-101 + Pictilisib; first compound 0.03162 µM) | relative viability (CUDC-101 + Pictilisib; first compound 0.1 µM) | relative viability (CUDC-101 + Pictilisib; first compound 0.3162 µM) | relative viability (CUDC-101 + Pictilisib; first compound 1 µM)
201T | 0.976 | 1.05 | 0.839 | 0.699 | 0.676 | 0.652 | 1.06 | 1.06 | 1.09 | 1.07 | 1.07 | 0.702 | 0.653 | 0.636 | 0.626 | 0.59
A549 | 0.823 | 0.58 | 0.253 | 0.534 | 0.407 | 0.108 | – | – | – | – | – | 0.578 | 0.489 | 0.5 | 0.453 | 0.288
A-427 | 1.12 | – | 0.899 | 0.735 | – | 0.652 | 0.784 | 1 | 0.861 | 1.18 | 0.965 | 0.804 | 0.656 | 0.655 | 0.698 | 0.614
ABC-1 | 1.07 | – | 0.537 | 0.546 | 0.493 | 0.298 | – | 0.736 | 0.374 | 0.855 | 0.737 | 0.688 | 0.788 | 0.547 | 0.533 | 0.212
BEN | – | 0.955 | 1.02 | 0.467 | 0.472 | 0.527 | 0.081 | 0.337 | 0.254 | 0.688 | 0.342 | 0.569 | 0.499 | 0.601 | 0.454 | 0.304
CAL-12T | 1.24 | 1.38 | 0.535 | 0.36 | 0.245 | 0.305 | 0.371 | 0.361 | 0.422 | 0.435 | 0.235 | 0.686 | 0.64 | 0.396 | 0.449 | 0.396
COR-L23 | 0.762 | 0.517 | 0.237 | 0.51 | 0.442 | 0.173 | 0.404 | 0.825 | 0.727 | 1.06 | 0.614 | 0.846 | 0.861 | 0.751 | 0.68 | 0.23
COR-L 105 | 0.852 | 0.926 | 0.538 | 0.307 | 0.281 | 0.264 | 0.782 | 0.848 | 0.85 | 0.826 | 0.657 | 0.466 | 0.376 | 0.352 | 0.313 | 0.189
Calu-6 | 0.854 | 0.912 | 0.517 | 0.954 | 0.741 | 0.444 | – | – | – | – | – | 0.944 | 0.869 | 0.929 | 0.764 | 0.522
ChaGo-K-1 | – | – | – | 1.14 | 0.424 | 0.776 | – | 0.678 | 0.594 | 0.693 | 0.67 | 1.03 | 1.04 | 0.784 | 0.746 | 0.568
EBC-1 | 0.772 | 0.824 | 0.559 | 0.364 | 0.348 | 0.212 | – | – | – | – | – | 0.43 | 0.325 | 0.328 | 0.159 | 0.0697
EKVX | 0.936 | 0.781 | 0.63 | 0.437 | 0.354 | 0.319 | 0.953 | 0.837 | 0.868 | 0.673 | 0.842 | 0.452 | 0.403 | 0.412 | 0.355 | 0.215
EMC-BAC-2 | 0.704 | 0.759 | 0.436 | 0.527 | 0.513 | 0.456 | 0.766 | 1.32 | 1.11 | 1.28 | 1.03 | 0.531 | 0.61 | 0.606 | 0.557 | 0.351
EPLC-272H | 0.799 | – | 0.9 | 0.285 | – | 0.184 | 0.248 | 0.229 | 0.169 | 0.392 | 0.302 | 0.449 | 0.434 | 0.275 | 0.244 | 0.18
H3255 | 0.716 | 0.608 | 0.491 | 0.454 | 0.424 | 0.256 | 0.779 | 0.884 | 0.916 | 1.11 | 0.944 | 0.618 | 0.382 | 0.143 | 0.181 | 0.0818
HARA | 0.884 | 0.719 | 0.346 | 0.459 | 0.238 | 0.275 | 0.527 | 0.802 | 0.452 | 0.666 | 0.675 | 0.684 | 0.475 | 0.293 | 0.215 | 0.157
HCC-15 | 0.865 | 0.933 | 0.678 | 0.718 | 0.738 | 0.737 | 0.478 | 0.255 | 0.237 | 0.354 | 0.27 | 0.683 | 0.774 | 0.713 | 0.79 | 0.569
HCC-44 | 0.835 | 0.784 | 0.313 | 0.658 | 0.602 | 0.412 | 0.988 | – | 1.03 | 1.05 | 0.951 | 0.593 | 0.63 | 0.531 | 0.69 | 0.366
HCC-78 | 0.319 | 0.198 | 0.282 | 0.207 | 0.138 | 0.172 | – | – | – | – | – | 0.246 | 0.205 | 0.209 | 0.153 | 0.145
HCC-366 | 0.758 | 0.342 | 0.0918 | 0.0975 | 0.105 | 0.113 | – | – | – | – | – | 0.136 | 0.121 | 0.142 | 0.13 | 0.119
HCC-827 | 1.05 | 1.05 | 0.822 | 1.14 | 0.84 | 0.968 | 0.464 | 0.833 | 0.579 | 1.13 | 0.785 | 1.07 | 0.53 | 0.368 | 0.287 | 0.262
HOP-62 | 1.16 | 0.891 | 0.946 | 0.815 | 0.75 | 0.754 | 0.749 | 0.948 | 0.861 | 0.973 | 0.898 | 0.758 | 0.696 | 0.753 | 0.582 | 0.4
